Results taken from patent publication US20220132847A1, “CINNOLINIUM COMPOUNDS FOR USE IN A METHOD OF CONTROLLING UNWANTED PLANT GROWTH” (SYNGENTA CROP PROTECTION AG, priority 2019, published 2022).
Where a name gives a salt, the structure may show the parent alone.

What was measured:
Test in all cases: Post-emergence efficacy, glasshouse
Format in all cases: in vivo
Setaria faberi (SETFA) = settings: Setaria faberi, post-emergence, 312 h, evaluated after 13 days, 100=total damage to plant, 0=no damage to plant, read-out: Control of weed species after post-emergence application, SETFA; for pest or weed control at 500 g/ha: Application Rate 500 g/Ha; for pest or weed control at 1000 g/ha: Application Rate 1000 g/Ha
Description: (§1) Seeds of a variety of test species were sown in standard soil in pots. After cultivation for 14 days (post-emergence) under controlled conditions in a glasshouse (at 24/16° C., day/night; 14 hours light; 65% humidity), the plants were sprayed with an aqueous spray solution derived from the dissolution of the technical active ingredient formula (I) in a small amount of acetone and a special solvent and emulsifier mixture referred to as IF50 (11.12% Emulsogen EL360™+44.44% N-methylpyrrolidone+44.44% Dowanol DPM glycol ether), to create a 50 g/l solution which was then diluted to required concentration using 0.25% or 1% Empicol ESC70 (Sodium lauryl ether sulphate)+1% ammonium sulphate in water as diluent.
(§2) The test plants were then grown in a glasshouse under controlled conditions (at 24/16° C., day/night; 14 hours light; 65% humidity) and watered twice daily. After 13 days the test was evaluated (100=total damage to plant; 0=no damage to plant).
(§3) Ipomoea hederacea (IPOHE), Euphorbia heterophylla (EPHHL), Chenopodium album (CHEAL), Amaranthus palmeri (AMAPA), Lolium perenne (LOLPE), Digitaria sanguinalis (DIGSA), Eleusine indica (ELEIN), Echinochloa crus-galli (ECHCG), Setaria faberi (SETFA)

Eleusine indica (ELEIN) = settings: Eleusine indica, post-emergence, 312 h, evaluated after 13 days, 100=total damage to plant, 0=no damage to plant, read-out: Control of weed species after post-emergence application, ELEIN; for pest or weed control at 500 g/ha: Application Rate 500 g/Ha; for pest or weed control at 1000 g/ha: Application Rate 1000 g/Ha
Description: as §1, §2, §3

[1] = test system: Ipomoea hederacea (IPOHE); settings: Ipomoea hederacea, post-emergence, 312 h, evaluated after 13 days, 100=total damage to plant, 0=no damage to plant, read-out: Control of weed species after post-emergence application, IPOHE; for pest or weed control at 500 g/ha: Application Rate 500 g/Ha; for pest or weed control at 1000 g/ha: Application Rate 1000 g/Ha
Description: as §1, §2, §3

[2] = test system: Digitaria sanguinalis (DIGSA); settings: Digitaria sanguinalis, post-emergence, 312 h, evaluated after 13 days, 100=total damage to plant, 0=no damage to plant, read-out: Control of weed species after post-emergence application, DIGSA; for pest or weed control at 500 g/ha: Application Rate 500 g/Ha; for pest or weed control at 1000 g/ha: Application Rate 1000 g/Ha
Description: as §1, §2, §3

[3] = test system: Euphorbia heterophylla (EPHHL); settings: Euphorbia heterophylla, post-emergence, 312 h, evaluated after 13 days, 100=total damage to plant, 0=no damage to plant, read-out: Control of weed species after post-emergence application, EPHHL; for pest or weed control at 500 g/ha: Application Rate 500 g/Ha; for pest or weed control at 1000 g/ha: Application Rate 1000 g/Ha
Description: as §1, §2, §3

[4] = test system: Amaranthus palmeri (AMAPA); settings: Amaranthus palmeri, post-emergence, 312 h, evaluated after 13 days, 100=total damage to plant, 0=no damage to plant, read-out: Control of weed species after post-emergence application, AMAPA; for pest or weed control at 500 g/ha: Application Rate 500 g/Ha; for pest or weed control at 1000 g/ha: Application Rate 1000 g/Ha
Description: as §1, §2, §3

[5] = test system: Echinochloa crus-galli (ECHCG); settings: Echinochloa crus-galli, post-emergence, 312 h, evaluated after 13 days, 100=total damage to plant, 0=no damage to plant, read-out: Control of weed species after post-emergence application, ECHCG; for pest or weed control at 500 g/ha: Application Rate 500 g/Ha; for pest or weed control at 1000 g/ha: Application Rate 1000 g/Ha
Description: as §1, §2, §3

Lolium perenne (LOLPE) = settings: Lolium perenne, post-emergence, 312 h, evaluated after 13 days, 100=total damage to plant, 0=no damage to plant, read-out: Control of weed species after post-emergence application, LOLPE; for pest or weed control at 500 g/ha: Application Rate 500 g/Ha; for pest or weed control at 1000 g/ha: Application Rate 1000 g/Ha
Description: as §1, §2, §3

[6] = test system: Chenopodium album (CHEAL); settings: Chenopodium album, post-emergence, 312 h, evaluated after 13 days, 100=total damage to plant, 0=no damage to plant, read-out: Control of weed species after post-emergence application, CHEAL; for pest or weed control at 500 g/ha: Application Rate 500 g/Ha; for pest or weed control at 1000 g/ha: Application Rate 1000 g/Ha
Description: as §1, §2, §3

Structure (SMILES) | pest or weed control at 500 g/ha (Setaria faberi (SETFA)) [%] | pest or weed control at 500 g/ha (Eleusine indica (ELEIN)) [%] | pest or weed control at 500 g/ha [1] [%] | pest or weed control at 500 g/ha [2] [%] | pest or weed control at 500 g/ha [3] [%] | pest or weed control at 500 g/ha [4] [%] | pest or weed control at 500 g/ha [5] [%] | pest or weed control at 500 g/ha (Lolium perenne (LOLPE)) [%] | pest or weed control at 500 g/ha [6] [%] | pest or weed control at 1000 g/ha (Setaria faberi (SETFA)) [%] | pest or weed control at 1000 g/ha (Eleusine indica (ELEIN)) [%] | pest or weed control at 1000 g/ha [1] [%] | pest or weed control at 1000 g/ha [2] [%] | pest or weed control at 1000 g/ha [3] [%] | pest or weed control at 1000 g/ha [4] [%] | pest or weed control at 1000 g/ha [5] [%] | pest or weed control at 1000 g/ha (Lolium perenne (LOLPE)) [%] | pest or weed control at 1000 g/ha [6] [%]
CC(C)OP(=O)([O-])c1c[n+](C(C)(C)C)nc2ccccc12 [Compound A74] | 20 | 60 | 50 | 20 | 50 | 100 | 10 | 30 | 60 | – | – | – | – | – | – | – | – | –
CC(C)CP(=O)([O-])c1c[n+](C)nc2ccccc12 [Compound A45] | – | – | – | – | – | – | – | – | – | 90 | 100 | 90 | 90 | 100 | 100 | 70 | 50 | 90
CCCS(=O)(=O)[N-]C(=O)c1c[n+](C)nc2ccccc12 [Compound A33] | – | – | – | – | – | – | – | – | – | 40 | 70 | 60 | 80 | 80 | 40 | 20 | 40 | 40
CS(=O)(=O)[N-]C(=O)c1c[n+](CCO)nc2ccccc12 [Compound A21] | – | – | – | – | – | – | – | – | – | 90 | 80 | 80 | 70 | 80 | 90 | 50 | 60 | 70
O=C(O)c1c[n+](CCOS(=O)(=O)[O-])nc2ccccc12 [Compound A28, 2-(4-carboxycinnolin-2-ium-2-yl)ethyl sulfate] | – | – | – | – | – | – | – | – | – | 40 | 40 | 20 | 70 | 30 | 90 | 20 | 50 | 70
CCOC(=O)Cc1c[n+](C)nc2ccccc12 [Compound A52, ethyl 2-(2-methylcinnolin-2-ium-4-yl)acetate 2,2,2-trifluoroacetate] | 10 | 70 | 20 | 30 | 40 | 50 | 10 | 10 | 60 | – | – | – | – | – | – | – | – | –
CCOP(=O)([O-])c1c[n+](C(C)C)nc2ccccc12 [Compound A77] | 90 | 100 | 90 | 90 | 80 | 100 | 50 | 30 | 90 | – | – | – | – | – | – | – | – | –
